ChEMBL document CHEMBL3885881, “DrugMatrix”

Species on record: Rattus norvegicus
Assay: DrugMatrix - Regimen: Daily Repeat
Assay type: toxicity, organism-based, Sprague-Dawley
Parameters: regimen Daily Repeat, gender Male, age 6-8 weeks
Settings: in vivo, po, route oral GAVAGE, vehicle 100 % WATER; for ABSOLUTE BASOPHIL / ABSOLUTE EOSINOPHIL / ABSOLUTE LYMPHOCYTE / ABSOLUTE MONOCYTE / ABSOLUTE SEGMENTED NEUTROPHIL / BASOPHIL / EOSINOPHIL / ERYTHROCYTE COUNT / HEMATOCRIT / HEMOGLOBIN / LEUKOCYTE COUNT / LYMPHOCYTE / MEAN CORPUSCULAR HEMOGLOBIN / MEAN CORPUSCULAR HEMOGLOBIN CONCENTRATION / MEAN CORPUSCULAR VOLUME / MONOCYTE / NEUTROPHIL / NUCLEATED RED BLOOD CELLS / PLATELET COUNT: tissue Blood; for ALANINE AMINOTRANSFERASE / ALBUMIN / ALKALINE PHOSPHATASE / ASPARTATE AMINOTRANSFERASE / BLOOD UREA NITROGEN / CARBON DIOXIDE / CHLORIDE / CHOLESTEROL / CREATINE PHOSPHOKINASE / CREATININE / GLUCOSE / LACTATE DEHYDROGENASE / LIPASE / PHOSPHORUS / POTASSIUM / SODIUM / TOTAL BILIRUBIN / TOTAL PROTEIN / URIC ACID: tissue Plasma
[1] = 27 mg/kg, 120 h, dose level Low, time 5 day
[2] = 54 mg/kg, 72 h, dose level High, time 3 day
[3] = 54 mg/kg, 120 h, dose level High, time 5 day

With `CNNCc1ccc(C(=O)NC(C)C)cc1` [PROCARBAZINE] the “ABSOLUTE BASOPHIL” value [1] was 0 CELLS/uL, the “ABSOLUTE EOSINOPHIL” value [1] was 16.67 CELLS/uL and the “ABSOLUTE LYMPHOCYTE” value [1] was 6271.33 CELLS/uL. The “ABSOLUTE MONOCYTE” value [1] was 33.33 CELLS/uL, the “ABSOLUTE SEGMENTED NEUTROPHIL” value [1] was 112 CELLS/uL and the BASOPHIL [1] was 0%. The EOSINOPHIL [1] was 0.33%, the “ERYTHROCYTE COUNT” value [1] was 5.26 x10E6/uL and the HEMATOCRIT [1] was 33.2%. The HEMOGLOBIN [1] was 13.37 G/DL, the “LEUKOCYTE COUNT” value [1] was 6.43 x10E3/uL and the LYMPHOCYTE [1] was 97.33%. The “MEAN CORPUSCULAR HEMOGLOBIN” value [1] was 25.4 pg, the “MEAN CORPUSCULAR HEMOGLOBIN CONCENTRATION” value [1] was 40.27 G/DL and the “MEAN CORPUSCULAR VOLUME” value [1] was 63.07 fL. The MONOCYTE [1] was 0.67%, the NEUTROPHIL [1] was 1.67% and the “NUCLEATED RED BLOOD CELLS” value [1] was 0 /100WBC. For the same compound, the “PLATELET COUNT” value [1] was 1312.67 x10E3/uL, the “ALANINE AMINOTRANSFERASE” value [1] was 59.67 u/L and the ALBUMIN [1] was 4.33 G/DL. For the same compound, the “ALKALINE PHOSPHATASE” value [1] was 347 u/L, the “ASPARTATE AMINOTRANSFERASE” value [1] was 78.67 u/L and the “BLOOD UREA NITROGEN” value [1] was 13.67 mg/dL. The “CARBON DIOXIDE” value [1] was 33.67 mmol/L, the CHLORIDE [1] was 98 MEQ/L and the CHOLESTEROL [1] was 69 mg/dL. For the same compound, the “CREATINE PHOSPHOKINASE” value [1] was 304.67 u/L, the CREATININE [1] was 0.18 mg/dL and the GLUCOSE [1] was 140.67 mg/dL. The “LACTATE DEHYDROGENASE” value [1] was 152 u/L, the LIPASE [1] was 15.33 u/L and the PHOSPHORUS [1] was 9.77 mg/dL. The POTASSIUM [1] was 5.23 MEQ/L, the SODIUM [1] was 144.95 MEQ/L and the “TOTAL BILIRUBIN” value [1] was 0.13 mg/dL. For the same compound, the “TOTAL PROTEIN” value [1] was 6.07 G/DL, the “URIC ACID” value [1] was 0.77 mg/dL and the “ABSOLUTE BASOPHIL” value [2] was 0 CELLS/uL. The “ABSOLUTE EOSINOPHIL” value [2] was 27.33 CELLS/uL, the “ABSOLUTE LYMPHOCYTE” value [2] was 4383.67 CELLS/uL and the “ABSOLUTE MONOCYTE” value [2] was 36 CELLS/uL. The “ABSOLUTE SEGMENTED NEUTROPHIL” value [2] was 119.67 CELLS/uL, the BASOPHIL [2] was 0% and the EOSINOPHIL [2] was 0.67%. For the same compound, the “ERYTHROCYTE COUNT” value [2] was 5.22 x10E6/uL, the HEMATOCRIT [2] was 33.2% and the HEMOGLOBIN [2] was 13 G/DL. The “LEUKOCYTE COUNT” value [2] was 4.57 x10E3/uL, the LYMPHOCYTE [2] was 96% and the “MEAN CORPUSCULAR HEMOGLOBIN” value [2] was 24.93 pg. For the same compound, the “MEAN CORPUSCULAR HEMOGLOBIN CONCENTRATION” value [2] was 39.17 G/DL, the “MEAN CORPUSCULAR VOLUME” value [2] was 63.7 fL and the MONOCYTE [2] was 0.67%. The NEUTROPHIL [2] was 2.67%, the “NUCLEATED RED BLOOD CELLS” value [2] was 0 /100WBC and the “PLATELET COUNT” value [2] was 1130.67 x10E3/uL. For the same compound, the “ALANINE AMINOTRANSFERASE” value [2] was 49.67 u/L, the ALBUMIN [2] was 4.13 G/DL and the “ALKALINE PHOSPHATASE” value [2] was 355.67 u/L. For the same compound, the “ASPARTATE AMINOTRANSFERASE” value [2] was 81.67 u/L, the “BLOOD UREA NITROGEN” value [2] was 13 mg/dL and the “CARBON DIOXIDE” value [2] was 33.67 mmol/L. For the same compound, the CHLORIDE [2] was 100 MEQ/L, the CHOLESTEROL [2] was 90 mg/dL and the “CREATINE PHOSPHOKINASE” value [2] was 291.67 u/L. For the same compound, the CREATININE [2] was 0.1 mg/dL, the GLUCOSE [2] was 146.67 mg/dL and the “LACTATE DEHYDROGENASE” value [2] was 99 u/L. For the same compound, the LIPASE [2] was 9 u/L, the PHOSPHORUS [2] was 9.63 mg/dL and the POTASSIUM [2] was 5.66 MEQ/L. The SODIUM [2] was 145.5 MEQ/L, the “TOTAL BILIRUBIN” value [2] was 0.1 mg/dL and the “TOTAL PROTEIN” value [2] was 6 G/DL. For the same compound, the “URIC ACID” value [2] was 0.43 mg/dL, the “ABSOLUTE BASOPHIL” value [3] was 0 CELLS/uL and the “ABSOLUTE EOSINOPHIL” value [3] was 0 CELLS/uL. The “ABSOLUTE LYMPHOCYTE” value [3] was 3873.67 CELLS/uL, the “ABSOLUTE MONOCYTE” value [3] was 49.33 CELLS/uL and the “ABSOLUTE SEGMENTED NEUTROPHIL” value [3] was 210.33 CELLS/uL. The BASOPHIL [3] was 0%, the EOSINOPHIL [3] was 0% and the “ERYTHROCYTE COUNT” value [3] was 5.43 x10E6/uL. The HEMATOCRIT [3] was 33.9%, the HEMOGLOBIN [3] was 13.27 G/DL and the “LEUKOCYTE COUNT” value [3] was 4.13 x10E3/uL. For the same compound, the LYMPHOCYTE [3] was 93.33%, the “MEAN CORPUSCULAR HEMOGLOBIN” value [3] was 24.43 pg and the “MEAN CORPUSCULAR HEMOGLOBIN CONCENTRATION” value [3] was 39.13 G/DL. For the same compound, the “MEAN CORPUSCULAR VOLUME” value [3] was 62.37 fL, the MONOCYTE [3] was 1% and the NEUTROPHIL [3] was 5.67%. The “NUCLEATED RED BLOOD CELLS” value [3] was 0 /100WBC, the “PLATELET COUNT” value [3] was 1552.67 x10E3/uL and the “ALANINE AMINOTRANSFERASE” value [3] was 57.33 u/L. The ALBUMIN [3] was 4.33 G/DL, the “ALKALINE PHOSPHATASE” value [3] was 297.33 u/L and the “ASPARTATE AMINOTRANSFERASE” value [3] was 75.67 u/L. The “BLOOD UREA NITROGEN” value [3] was 15.33 mg/dL, the “CARBON DIOXIDE” value [3] was 34 mmol/L and the CHLORIDE [3] was 97.67 MEQ/L. The CHOLESTEROL [3] was 81 mg/dL, the “CREATINE PHOSPHOKINASE” value [3] was 273.67 u/L and the CREATININE [3] was 0.13 mg/dL. For the same compound, the GLUCOSE [3] was 134.67 mg/dL, the “LACTATE DEHYDROGENASE” value [3] was 135.33 u/L and the LIPASE [3] was 10 u/L. It also gave a PHOSPHORUS [3] of 9.93 mg/dL, a POTASSIUM [3] of 6 MEQ/L and an SODIUM [3] of 143.97 MEQ/L. For the same compound, the “TOTAL BILIRUBIN” value [3] was 0.17 mg/dL, the “TOTAL PROTEIN” value [3] was 6.13 G/DL and the “URIC ACID” value [3] was 0.97 mg/dL.
